In ChEMBL document CHEMBL5465560, “Selectivity Literature for EUbOPEN Chemogenomic Library” (2024):

What was measured:
[1] = biological target: Serine/threonine-protein kinase PLK1 (Homo sapiens, UniProt P53350); assay: Selectivity interaction (KinomeScan (DiscoverX)) EUB0000595a PLK1; conditions: at 10 µM
[2] = biological target: Dual specificity tyrosine-phosphorylation-regulated kinase 1B (Homo sapiens, UniProt Q9Y463); assay: Selectivity interaction (KinomeScan (DiscoverX)) EUB0000045b DYRK1B
[3] = biological target: T1, Serine/threonine-protein kinase NLK (Homo sapiens) (UniProt Q9UBE8); assay: Selectivity interaction (KinomeScan (DiscoverX)) EUB0000666a NLK; conditions: at 10 µM
T1 sequence (whole entry): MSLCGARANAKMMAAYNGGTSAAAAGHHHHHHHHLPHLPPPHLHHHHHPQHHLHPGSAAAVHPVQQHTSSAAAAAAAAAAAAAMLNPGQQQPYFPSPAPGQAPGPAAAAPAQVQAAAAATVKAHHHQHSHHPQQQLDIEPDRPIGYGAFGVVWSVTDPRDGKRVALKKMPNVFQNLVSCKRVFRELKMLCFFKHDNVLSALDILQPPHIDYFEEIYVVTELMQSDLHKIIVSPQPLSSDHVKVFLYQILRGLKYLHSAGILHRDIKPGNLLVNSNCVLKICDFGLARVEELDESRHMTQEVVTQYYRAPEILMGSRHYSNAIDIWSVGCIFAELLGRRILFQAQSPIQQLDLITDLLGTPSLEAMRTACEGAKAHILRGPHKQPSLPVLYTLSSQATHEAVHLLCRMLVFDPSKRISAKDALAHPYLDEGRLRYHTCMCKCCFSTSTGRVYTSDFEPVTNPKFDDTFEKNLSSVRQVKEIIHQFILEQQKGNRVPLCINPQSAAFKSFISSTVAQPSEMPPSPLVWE

[4] = biological target: T2, Dual specificity mitogen-activated protein kinase kinase 3 (Homo sapiens) (UniProt P46734); conditions: at 10 µM
T2 sequence (whole entry): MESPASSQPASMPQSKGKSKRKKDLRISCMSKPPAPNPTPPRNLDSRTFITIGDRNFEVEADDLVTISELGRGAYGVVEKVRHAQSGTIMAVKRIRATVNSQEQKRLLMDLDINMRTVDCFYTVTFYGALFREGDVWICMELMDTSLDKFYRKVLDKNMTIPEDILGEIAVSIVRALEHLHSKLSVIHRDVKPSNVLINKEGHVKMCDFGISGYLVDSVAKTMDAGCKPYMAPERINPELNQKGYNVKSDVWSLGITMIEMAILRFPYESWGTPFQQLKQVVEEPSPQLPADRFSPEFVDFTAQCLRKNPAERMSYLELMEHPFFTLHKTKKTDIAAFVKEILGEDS

[5] = biological target: Sodium-dependent serotonin transporter (Homo sapiens, UniProt P31645); assay: Selectivity interaction (Panel of non-epigenetic targets (kinases, GPCRs, ion channels, and transporters, Eurofins) ) EUB0000271b SLC6A4; conditions: at 1 µM
[6] = biological target: Serine/threonine-protein kinase WNK2 (Homo sapiens) (UniProt Q9Y3S1); assay: Selectivity interaction (ActivX KiNativ screen (ex vivo kinase selectivity in human PBMCs)) EUB0001619a WNK2; assay type: cell-based; conditions: PBMC, at 1 µM
[7] = biological target: Calcium/calmodulin-dependent protein kinase type II subunit gamma (Homo sapiens) (UniProt Q13555); assay: Selectivity interaction (KinomeScan (DiscoverX)) EUB0000607a CAMK2G; conditions: at 10 µM
[8] = biological target: Serine/threonine-protein kinase/endoribonuclease IRE1 (Homo sapiens) (UniProt O75460); assay: Selectivity interaction (KinomeScan (DiscoverX)) EUB0000618a ERN1; conditions: at 10 µM
[9] = biological target: T3, Serine/threonine-protein kinase ULK2 (Homo sapiens) (UniProt Q8IYT8); assay: Selectivity interaction (KinomeScan (DiscoverX)) EUB0000092b ULK2; conditions: at 10 µM
T3 sequence (whole entry): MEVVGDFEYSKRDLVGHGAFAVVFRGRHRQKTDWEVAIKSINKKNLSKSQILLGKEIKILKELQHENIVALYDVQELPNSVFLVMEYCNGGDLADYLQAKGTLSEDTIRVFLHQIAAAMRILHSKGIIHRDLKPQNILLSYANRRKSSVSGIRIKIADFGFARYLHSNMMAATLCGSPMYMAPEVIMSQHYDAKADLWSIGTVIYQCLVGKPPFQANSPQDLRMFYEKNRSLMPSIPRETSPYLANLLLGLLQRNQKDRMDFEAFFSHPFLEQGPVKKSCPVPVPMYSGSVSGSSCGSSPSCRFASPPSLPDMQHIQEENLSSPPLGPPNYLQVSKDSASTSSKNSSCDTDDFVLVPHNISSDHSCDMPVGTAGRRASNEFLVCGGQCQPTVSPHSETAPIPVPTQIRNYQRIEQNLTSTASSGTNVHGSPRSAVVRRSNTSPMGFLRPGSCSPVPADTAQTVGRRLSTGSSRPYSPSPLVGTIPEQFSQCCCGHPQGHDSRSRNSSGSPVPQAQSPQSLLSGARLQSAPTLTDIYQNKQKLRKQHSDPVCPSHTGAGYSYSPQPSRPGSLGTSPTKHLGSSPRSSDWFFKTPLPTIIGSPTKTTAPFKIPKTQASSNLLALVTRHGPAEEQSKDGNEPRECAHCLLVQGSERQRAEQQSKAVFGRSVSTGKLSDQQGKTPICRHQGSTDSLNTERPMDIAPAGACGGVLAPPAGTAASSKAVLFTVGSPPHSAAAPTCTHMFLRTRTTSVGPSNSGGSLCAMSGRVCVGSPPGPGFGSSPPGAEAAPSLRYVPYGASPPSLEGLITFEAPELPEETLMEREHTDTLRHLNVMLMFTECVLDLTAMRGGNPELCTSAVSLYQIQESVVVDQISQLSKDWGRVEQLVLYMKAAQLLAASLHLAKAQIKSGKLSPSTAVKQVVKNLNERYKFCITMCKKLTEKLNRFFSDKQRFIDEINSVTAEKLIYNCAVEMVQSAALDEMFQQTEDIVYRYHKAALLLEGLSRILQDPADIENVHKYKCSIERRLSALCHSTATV

Sequence of Dual specificity tyrosine-phosphorylation-regulated kinase 1B (Q9Y463 whole entry, looked up): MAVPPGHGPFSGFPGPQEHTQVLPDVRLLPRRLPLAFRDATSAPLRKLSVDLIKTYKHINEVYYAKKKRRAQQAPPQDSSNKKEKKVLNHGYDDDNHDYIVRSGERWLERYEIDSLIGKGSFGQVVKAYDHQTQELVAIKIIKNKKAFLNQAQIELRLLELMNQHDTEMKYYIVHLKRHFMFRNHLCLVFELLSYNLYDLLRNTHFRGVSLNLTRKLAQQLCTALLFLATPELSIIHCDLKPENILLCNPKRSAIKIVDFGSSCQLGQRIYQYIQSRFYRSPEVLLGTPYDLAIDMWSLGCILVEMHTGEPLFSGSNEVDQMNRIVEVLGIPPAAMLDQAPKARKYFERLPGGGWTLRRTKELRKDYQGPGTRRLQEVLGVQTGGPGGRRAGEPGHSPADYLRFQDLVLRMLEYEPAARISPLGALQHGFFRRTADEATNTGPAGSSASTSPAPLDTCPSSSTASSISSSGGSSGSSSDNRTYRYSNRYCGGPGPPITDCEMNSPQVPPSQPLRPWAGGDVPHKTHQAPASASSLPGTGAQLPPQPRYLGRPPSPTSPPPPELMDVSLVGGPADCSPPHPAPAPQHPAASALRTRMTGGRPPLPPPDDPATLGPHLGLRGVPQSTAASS
Sequence of Serine/threonine-protein kinase/endoribonuclease IRE1 (Homo sapiens) (O75460 19-977 limits assumed): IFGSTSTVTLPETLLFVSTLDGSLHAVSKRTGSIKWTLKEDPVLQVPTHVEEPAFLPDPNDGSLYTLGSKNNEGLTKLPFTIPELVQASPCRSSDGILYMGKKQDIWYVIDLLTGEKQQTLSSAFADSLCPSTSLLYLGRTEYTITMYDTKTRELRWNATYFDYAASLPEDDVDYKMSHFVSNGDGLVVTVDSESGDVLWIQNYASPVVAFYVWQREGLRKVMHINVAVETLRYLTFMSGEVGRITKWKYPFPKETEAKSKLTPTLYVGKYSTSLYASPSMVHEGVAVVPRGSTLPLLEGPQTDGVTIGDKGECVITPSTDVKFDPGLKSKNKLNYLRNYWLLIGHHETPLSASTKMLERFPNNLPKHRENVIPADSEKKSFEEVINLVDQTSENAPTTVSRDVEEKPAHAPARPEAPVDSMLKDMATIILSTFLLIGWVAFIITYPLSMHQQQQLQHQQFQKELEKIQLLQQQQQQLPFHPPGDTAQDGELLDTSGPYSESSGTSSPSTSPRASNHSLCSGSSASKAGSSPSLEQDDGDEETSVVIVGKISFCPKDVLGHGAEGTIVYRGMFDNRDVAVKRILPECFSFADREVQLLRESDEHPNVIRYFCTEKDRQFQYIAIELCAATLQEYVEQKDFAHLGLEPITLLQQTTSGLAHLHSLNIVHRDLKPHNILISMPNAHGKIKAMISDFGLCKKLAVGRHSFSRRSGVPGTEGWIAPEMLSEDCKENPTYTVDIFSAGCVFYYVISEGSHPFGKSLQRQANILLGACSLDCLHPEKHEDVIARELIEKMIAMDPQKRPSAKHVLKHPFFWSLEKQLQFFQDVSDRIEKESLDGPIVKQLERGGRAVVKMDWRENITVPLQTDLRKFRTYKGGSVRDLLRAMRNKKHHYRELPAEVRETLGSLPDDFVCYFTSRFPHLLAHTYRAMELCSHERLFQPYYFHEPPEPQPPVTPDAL
Sequence of Serine/threonine-protein kinase WNK2 (Homo sapiens) (Q9Y3S1 whole entry): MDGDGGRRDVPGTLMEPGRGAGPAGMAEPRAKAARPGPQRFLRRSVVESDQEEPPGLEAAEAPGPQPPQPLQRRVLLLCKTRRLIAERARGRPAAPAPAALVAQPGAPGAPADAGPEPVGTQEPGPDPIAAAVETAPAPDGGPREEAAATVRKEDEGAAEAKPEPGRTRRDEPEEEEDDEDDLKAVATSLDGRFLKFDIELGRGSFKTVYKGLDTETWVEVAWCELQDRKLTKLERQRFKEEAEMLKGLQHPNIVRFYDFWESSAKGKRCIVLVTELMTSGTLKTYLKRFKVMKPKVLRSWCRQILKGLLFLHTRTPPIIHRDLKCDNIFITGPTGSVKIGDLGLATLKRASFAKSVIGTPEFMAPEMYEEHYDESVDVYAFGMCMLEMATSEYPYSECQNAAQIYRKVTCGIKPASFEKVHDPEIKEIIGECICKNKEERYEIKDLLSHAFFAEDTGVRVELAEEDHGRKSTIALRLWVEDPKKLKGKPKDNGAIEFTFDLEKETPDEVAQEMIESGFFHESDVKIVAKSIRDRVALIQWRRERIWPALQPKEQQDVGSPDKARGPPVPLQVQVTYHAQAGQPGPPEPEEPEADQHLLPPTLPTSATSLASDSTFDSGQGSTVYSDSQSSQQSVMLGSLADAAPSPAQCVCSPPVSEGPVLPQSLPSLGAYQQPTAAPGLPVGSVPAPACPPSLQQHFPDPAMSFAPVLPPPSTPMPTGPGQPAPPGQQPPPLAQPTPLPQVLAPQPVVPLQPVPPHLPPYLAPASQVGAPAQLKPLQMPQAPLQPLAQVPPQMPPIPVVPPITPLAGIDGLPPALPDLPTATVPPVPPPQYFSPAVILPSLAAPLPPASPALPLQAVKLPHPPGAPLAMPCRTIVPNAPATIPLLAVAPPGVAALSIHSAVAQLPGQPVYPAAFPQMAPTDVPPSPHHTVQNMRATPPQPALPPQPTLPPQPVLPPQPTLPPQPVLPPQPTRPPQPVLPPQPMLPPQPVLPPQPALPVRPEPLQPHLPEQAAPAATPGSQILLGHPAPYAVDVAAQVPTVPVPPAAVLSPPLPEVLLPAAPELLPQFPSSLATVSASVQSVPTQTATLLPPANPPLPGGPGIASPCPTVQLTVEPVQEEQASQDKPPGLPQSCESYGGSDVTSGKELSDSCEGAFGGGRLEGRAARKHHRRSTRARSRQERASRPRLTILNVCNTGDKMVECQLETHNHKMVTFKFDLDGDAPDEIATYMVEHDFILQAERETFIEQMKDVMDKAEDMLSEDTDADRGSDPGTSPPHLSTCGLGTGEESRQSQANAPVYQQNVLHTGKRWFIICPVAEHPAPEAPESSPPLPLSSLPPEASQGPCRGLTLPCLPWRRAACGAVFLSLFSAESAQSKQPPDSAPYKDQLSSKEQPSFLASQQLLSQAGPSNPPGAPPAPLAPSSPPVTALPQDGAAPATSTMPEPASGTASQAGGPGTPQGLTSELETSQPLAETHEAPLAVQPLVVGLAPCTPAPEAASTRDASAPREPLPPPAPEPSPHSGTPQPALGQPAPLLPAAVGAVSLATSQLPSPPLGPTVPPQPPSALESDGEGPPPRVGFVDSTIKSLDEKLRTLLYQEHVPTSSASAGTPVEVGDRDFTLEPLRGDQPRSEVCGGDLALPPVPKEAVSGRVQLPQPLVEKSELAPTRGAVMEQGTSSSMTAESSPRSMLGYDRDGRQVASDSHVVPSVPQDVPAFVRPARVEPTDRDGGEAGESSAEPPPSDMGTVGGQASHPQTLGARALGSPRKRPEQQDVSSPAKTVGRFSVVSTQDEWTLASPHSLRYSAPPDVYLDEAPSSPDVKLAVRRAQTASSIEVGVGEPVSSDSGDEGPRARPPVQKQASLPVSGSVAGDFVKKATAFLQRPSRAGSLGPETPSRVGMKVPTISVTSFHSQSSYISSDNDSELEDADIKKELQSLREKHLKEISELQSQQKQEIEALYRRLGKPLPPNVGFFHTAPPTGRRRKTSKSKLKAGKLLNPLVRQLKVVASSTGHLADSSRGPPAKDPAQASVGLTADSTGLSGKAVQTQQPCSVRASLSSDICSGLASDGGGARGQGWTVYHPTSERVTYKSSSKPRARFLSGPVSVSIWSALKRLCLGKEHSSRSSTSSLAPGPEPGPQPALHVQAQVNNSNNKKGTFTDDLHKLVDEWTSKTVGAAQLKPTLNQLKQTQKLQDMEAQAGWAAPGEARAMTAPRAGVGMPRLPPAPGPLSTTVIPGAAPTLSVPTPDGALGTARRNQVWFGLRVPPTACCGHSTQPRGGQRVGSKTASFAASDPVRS
Sequence of Calcium/calmodulin-dependent protein kinase type II subunit gamma (Homo sapiens) (Q13555 whole entry): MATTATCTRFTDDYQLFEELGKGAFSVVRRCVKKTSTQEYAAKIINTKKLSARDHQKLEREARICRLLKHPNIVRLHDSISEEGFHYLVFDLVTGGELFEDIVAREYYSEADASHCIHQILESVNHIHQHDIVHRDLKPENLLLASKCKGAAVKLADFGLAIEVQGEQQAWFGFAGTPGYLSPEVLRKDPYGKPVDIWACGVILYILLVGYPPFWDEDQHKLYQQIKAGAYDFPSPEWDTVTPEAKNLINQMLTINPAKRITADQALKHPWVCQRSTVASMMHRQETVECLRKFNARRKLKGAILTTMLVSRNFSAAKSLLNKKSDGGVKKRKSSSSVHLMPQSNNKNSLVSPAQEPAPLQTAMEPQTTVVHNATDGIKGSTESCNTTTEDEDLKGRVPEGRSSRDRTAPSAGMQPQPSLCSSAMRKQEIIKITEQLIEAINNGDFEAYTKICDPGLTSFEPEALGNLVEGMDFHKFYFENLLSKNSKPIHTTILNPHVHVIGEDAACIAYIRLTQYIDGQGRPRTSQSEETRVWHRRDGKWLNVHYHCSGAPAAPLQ
Sequence of Sodium-dependent serotonin transporter (P31645 whole entry, looked up): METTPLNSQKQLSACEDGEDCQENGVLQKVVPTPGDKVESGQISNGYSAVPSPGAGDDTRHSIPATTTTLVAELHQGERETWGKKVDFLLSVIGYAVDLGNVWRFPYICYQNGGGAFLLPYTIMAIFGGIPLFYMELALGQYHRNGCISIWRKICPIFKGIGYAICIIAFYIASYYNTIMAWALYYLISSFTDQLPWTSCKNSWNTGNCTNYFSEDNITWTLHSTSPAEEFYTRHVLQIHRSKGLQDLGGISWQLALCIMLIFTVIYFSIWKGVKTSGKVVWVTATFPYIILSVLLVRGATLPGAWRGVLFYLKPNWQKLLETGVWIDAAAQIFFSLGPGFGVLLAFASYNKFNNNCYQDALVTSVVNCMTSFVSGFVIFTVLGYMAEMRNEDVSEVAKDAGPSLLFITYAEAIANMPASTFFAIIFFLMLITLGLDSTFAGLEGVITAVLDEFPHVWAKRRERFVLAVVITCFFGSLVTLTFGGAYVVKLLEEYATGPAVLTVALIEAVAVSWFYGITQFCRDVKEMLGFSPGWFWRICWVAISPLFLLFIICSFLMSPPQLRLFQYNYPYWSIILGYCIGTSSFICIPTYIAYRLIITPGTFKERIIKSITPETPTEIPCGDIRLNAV

For `COCC(=O)NC/C=C/c1ccc2ncnc(Nc3ccc(Oc4ccc(C)nc4)c(C)c3)c2c1` [CP-724714], the % of control [1] was 81%.

Molecule `C=CC(=O)Nc1cc(-n2c(=O)ccc3cnc4ccc(-c5ccc(NS(C)(=O)=O)cc5)cc4c32)ccc1C` has a % of control ([2]; at 1 µM) of 100% and a % of control ([2]; at 10 µM) of 81%.

Work on `O=C(NOC[C@H](O)CO)c1ccc(F)c(F)c1Nc1ccc(I)cc1F` yielded a % of control [3] of 77%.

`Cc1cc([C@@H](C)Nc2ccccc2C(=O)O)c2nc(N3CCOCC3)cc(=O)n2c1` [AZD-6482] was tested, and the % of control [4] was 100%.

`Cc1cc(C)cc([C@@H]2c3cc(C)ccc3NC(=O)CN2C(=O)c2ccc(Br)s2)c1` was tested, and the % of inhibition [5] was -17%.

Molecule `N#Cc1cccc(-c2c[nH]c3ncnc(N4CCOCC4)c23)c1` has a % of inhibition [6] of -1%.

`CNC(=O)Nc1ccc(-c2nc(N3CC4CCC(C3)O4)c3cnn(C4CCC5(CC4)OCCO5)c3n2)cc1` was tested, and the % of control [7] was 100%.

With `O[C@H]1CC[C@H](Nc2ncc3nc(Nc4c(F)cc(F)cc4F)n([C@H]4CCOC4)c3n2)CC1` the % of control [8] was 46%.

Work on `CCC(=O)N1CCN(c2ccc(-n3c(=O)ccc4cnc5ccc(-c6cnc7ccccc7c6)cc5c43)cc2C(F)(F)F)CC1` yielded a % of control [9] of 75%.
